Laboratory results as given in patent US20240287132A1, “PEPTIDE, COMPOSITION, AND GHRELIN SECRETION PROMOTING AGENT” (KYOTO UNIVERSITY, priority 2019, published 2024).

Key:
[1] = test system: male ddY mice; assay: Evaluation 2 of eating behavior of mice (feed intake over 2 hours); assay type: in vivo; settings: 7 weeks old male ddY mice, single oral dose 1 mg/kg, 2 hours after feeding, FIG. 6, *: P<0.05 relative to the control
Procedure: Mice (7 weeks old male ddY mice acclimated for at least 1 week before use after being purchased) were orally administered with a single dose of a saline solution of each peptide (1 mg/kg). Subsequently, a previously weighed feed (CE-2 (trade name) manufactured by CLEA Japan, Inc.) was given to the mice, and 2 hours after the feeding, the weight of the remaining feed was measured. A control test was also carried out in which the same procedure was carried out as shown above except that a single dose of saline was orally administered instead of each peptide. The amount of feed intake (g/2 hours) was defined as the difference between the weight of the feed given to the mice and the weight of the feed remaining 2 hours after the feeding. Based on the results, the amount of feed intake in the control group was normalized to 100, and the amount of feed intake in each group was calculated relative to 100. The results are shown in FIG. 6 (n=7 to 18, *: P<0.05 relative to the control).

[2] = test system: Ghrelin-secreting cells (MGN3-1); assay: Ghrelin secretion activity evaluation (ghrelin in medium, ELISA); assay type: cell-based; settings: MGN3-1 cells; for ghrelin secretion (ghrelin concentration in medium): peptide concentration 0.01, 0.1, or 1 mM, FIG. 2, n=4; for significance of ghrelin secretion promoting effect: peptide concentration of 1 mM or more, FIG. 2
Procedure: (§1) Ghrelin-secreting cells (MGN3-1) were seeded at 1×10^5 cells/well onto a 96-well plate and cultured in a sodium octanoate/DMEM medium at 37° C. for 24 hours. After the cultivation, the cells were washed with DPBS. A buffer solution of each peptide was prepared and, 100 μL of the buffer solution (with a peptide concentration of 1 mg/mL or 10 mg/mL) was added to the cells. The cells were further cultured at 37° C. for 4 hours. The buffer used contained 50 μM of sodium octanoate in DMEM.
Unless otherwise stated, all tests shown below were performed using, as a control, a culture obtained in the same manner as shown above except that only the buffer was added instead of the buffer solution of the peptide.
After the cultivation, the medium sample was collected and centrifuged to give a supernatant. Subsequently, 10 μL of 1 N HCl was added to the supernatant, and the resulting sample was stored at −80° C. until it was subjected to the ghrelin concentration measurement shown below.
The concentration of ghrelin in each medium sample was measured using an ELISA kit (Ghrelin (Acylated) EIA Kit A05117 (trade name) manufactured by Bertin Pharma SAS). The results shown in FIG. 1 are values relative to the measured value of the control.
The two peptides were evaluated for their effect on ghrelin secretion by the same method as shown above (Ghrelin Secretion Activity Evaluation 1).

[3] = test system: Ghrelin-secreting cells (MGN3-1); assay: Intracellular ghrelin level (Ghrelin Secretion Activity Evaluation 3); assay type: cell-based; settings: MGN3-1 cells, FIG. 3A, n=4 or 5
Procedure: as §1
The peptide of SEQ ID NO: 1 was evaluated for its effect on ghrelin secretion (intracellular ghrelin level) by the same method as shown above (Ghrelin Secretion Activity Evaluation 1).

[4] = test system: ghrelin synthesis-related genes (Preproghrelin, GOAT, and PC3); assay: Evaluation of ghrelin synthesis-related gene expression (qPCR); assay type: cell-based; settings: MGN3-1 cells, FIGS. 3B, 3C, 3D, n=4 or 5
Procedure: The expression levels of the three, ghrelin synthesis-related genes (Preproghrelin, GOAT, and PC3) in the cells obtained after the completion of the cultivation shown above (Ghrelin Secretion Activity Evaluation 1) were measured by the method shown below. First, mRNA was extracted from the cells using RNeasy Mini Kit (manufactured by QIA-GEN) and Takara PrimeScript RT Master Mix (manufactured by Takara Bio Inc.). Subsequently, the mRNA expression level was measured through the amplification of cDNA using LightCycler 96 System (manufactured by Roche Diagnostics K.K.) and THUNDERBIRD qPCR Mix (manufactured by Toyobo Co., Ltd.). The results are shown in FIG. 3B (Preproghrelin), FIG. 3C (GOAT), and FIG. 3D (PC3) (n=4 or 5).

[5] = test system: Ghrelin-secreting cells (MGN3-1); assay: Evaluation of intracellular CAMP level; assay type: cell-based; settings: MGN3-1 cells, 0.5 mM IBMX, 37° C. 30 minutes, FIG. 4
Procedure: Ghrelin-secreting cells (MGN3-1) were […] in a Krebs-Ringer-HEPES buffer containing 0.5 mM IBMX. After the mixture was incubated at 37° C. for 30 minutes, the intracellular CAMP was quantified using HitHunter CAMP Assay for Small Molecules (manufactured by DiscoveRx).

[6] = test system: Ghrelin-secreting cells (MGN3-1); assay: Evaluation of intracellular calcium ion level; assay type: cell-based; settings: data not shown
Procedure: The intracellular calcium ion level was measured using Calcium Kit II-Fluo 4 (Dojindo Laboratories) and a multi-plate reader (manufactured by BMG LABTECH GmbH, Aex: 485 nm, Xem: 520 nm).

[7] = test system: male ddY mice; assay: Evaluation 1 of eating behavior of mice (feed intake over 4 hours); assay type: in vivo; settings: 11 weeks old male ddY mice, single oral dose 1 mg/kg, 4 hours after feeding, vs saline control, FIG. 5A
Procedure: Mice (11 weeks old male ddY mice) were orally administered with a single dose of a saline solution of the peptide of SEQ ID NO: 1 (1 mg/kg). Subsequently, a previously weighed feed (CE-2 (trade name) manufactured by CLEA Japan, Inc.) was given to the mice, and 4 hours after the feeding, the weight of the remaining feed was measured. A control test was also carried out in which the same procedure was carried out as shown above except that a single dose of saline was orally administered instead of the peptide of SEQ ID NO: 1. The amount of feed intake (g/4 hours) was defined as the difference between the weight of the feed given to the mice and the weight of the feed remaining 4 hours after the feeding.

[8] = test system: male ddY mice; assay: Evaluation of mouse serum ghrelin level; assay type: in vivo; settings: 11 weeks old male ddY mice, 0.3 mg/kg, 1 hour after administration, FIG. 5B
Procedure: Mice (11 weeks old male ddY mice) were administered with a saline solution of the peptide of SEQ ID NO: 1 (0.3 mg/kg). Subsequently, 1 hour after the administration, blood was collected from the orbital vein of the mice and centrifuged at 4° C. at 1,120×g for 10 minutes. The resulting supernatant was acidified with 1 N HCl and then measured for serum ghrelin level (pg/ml) using an acylated ghrelin enzyme immunoassay kit.

Row | Substance | amount of feed intake relative to control (control normalized to 100) [1] | ghrelin secretion (ghrelin concentration in medium) [2] | significance of ghrelin secretion promoting effect [2] | further results
1 | HSPR [SEQ ID NO: 6] | significantly increased | – | – | –
2 | QAFE [SEQ ID NO: 3] | significantly increased | – | – | –
3 | QAFEPIRSV [SEQ ID NO: 1] | increased | ghrelin secretion promoting effect | significant | extracellular ghrelin level ([2]; data not shown): increased; intracellular ghrelin level [3]: tendency to reduce; expression levels of the ghrelin synthesis-related genes (Preproghrelin, GOAT, PC3 mRNA) [4]: not found to change; intracellular CAMP level [5]: no effect; intracellular calcium ion level [6]: no effect; amount of feed intake [7]: increased; serum ghrelin level [8]: increased
4 | QGSF [SEQ ID NO: 7] | significantly increased | – | – | –
5 | TNPW [SEQ ID NO: 5] | significantly increased | – | – | –
6 | TNPWHSPROGSF (TNPWHSPRQGSF) [SEQ ID NO: 2] | increased | ghrelin secretion promoting effect | significant | –
